Blank lines part the entries; values can stand above or below the compound they belong to.
How the values were obtained:
GSPT1 = GSPT1 (Homo sapiens, UniProt P15170+Q96SW2); assay: HiBiT degradation assay, GSPT1, Procedure B (Molt 4_hGSPT1_HiBIT cells); type: cell-based; set-up: Molt 4_hGSPT1_HiBIT N-terminus tagged cells were generated using CRISPR technology; endogenous in cells; host or cells: Molt 4 cells, CRISPR-edited; conditions: six hours
How it was run: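 CRISPR N-terminal HiBiT-tagged Molt 4 cells at 1×10^6 cells/ml were treated 6 h at 37° C with compounds (10-point, 10 μM to 0.005 μM, 0.1% DMSO). Remaining HiBiT-GSPT1 was read by lytic luminescence; DC50 and Ymin (% remaining) from a 4-parameter fit.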

CK1α = biological target: T1, CK1α (Homo sapiens, UniProt P48729+Q96SW2); assay: HiBiT degradation assay, CK1α, Procedure A; type: cell-based; conditions: six hours
T1 construct: CSNK1A1-HiBit KI HEK293(LgBit) Cells; host or cells: HEK293(LgBit) knock-in cells
How it was run: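 Six-hour treatment at 37° C, ten doses between 10 μM and 0.005 μM, then HiBiT lytic luminescence. Fitted DC50 and Ymin.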

T1 sequence (P48729 whole entry): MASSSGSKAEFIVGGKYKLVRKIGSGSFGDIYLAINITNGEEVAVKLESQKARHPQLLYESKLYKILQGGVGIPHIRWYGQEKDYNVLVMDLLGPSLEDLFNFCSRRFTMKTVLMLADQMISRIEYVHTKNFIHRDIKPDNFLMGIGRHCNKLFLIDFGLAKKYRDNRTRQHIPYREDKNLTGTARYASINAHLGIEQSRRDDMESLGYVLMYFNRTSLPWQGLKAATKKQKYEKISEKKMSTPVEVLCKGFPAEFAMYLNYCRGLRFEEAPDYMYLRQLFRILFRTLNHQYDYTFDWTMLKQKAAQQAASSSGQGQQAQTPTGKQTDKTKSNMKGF
T1 sequence (Q96SW2 whole entry): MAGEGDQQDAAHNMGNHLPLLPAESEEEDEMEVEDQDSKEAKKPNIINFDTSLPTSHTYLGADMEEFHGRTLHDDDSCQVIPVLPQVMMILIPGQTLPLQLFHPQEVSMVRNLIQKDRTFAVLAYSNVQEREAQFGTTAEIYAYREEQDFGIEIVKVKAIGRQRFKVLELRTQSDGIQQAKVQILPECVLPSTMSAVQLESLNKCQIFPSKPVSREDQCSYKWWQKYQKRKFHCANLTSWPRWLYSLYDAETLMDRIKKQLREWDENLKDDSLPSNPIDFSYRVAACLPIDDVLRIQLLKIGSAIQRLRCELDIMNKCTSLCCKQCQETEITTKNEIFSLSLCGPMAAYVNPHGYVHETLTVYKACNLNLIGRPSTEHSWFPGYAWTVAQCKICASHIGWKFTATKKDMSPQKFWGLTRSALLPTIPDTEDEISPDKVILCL
T1 sequence (Q16531 whole entry partner): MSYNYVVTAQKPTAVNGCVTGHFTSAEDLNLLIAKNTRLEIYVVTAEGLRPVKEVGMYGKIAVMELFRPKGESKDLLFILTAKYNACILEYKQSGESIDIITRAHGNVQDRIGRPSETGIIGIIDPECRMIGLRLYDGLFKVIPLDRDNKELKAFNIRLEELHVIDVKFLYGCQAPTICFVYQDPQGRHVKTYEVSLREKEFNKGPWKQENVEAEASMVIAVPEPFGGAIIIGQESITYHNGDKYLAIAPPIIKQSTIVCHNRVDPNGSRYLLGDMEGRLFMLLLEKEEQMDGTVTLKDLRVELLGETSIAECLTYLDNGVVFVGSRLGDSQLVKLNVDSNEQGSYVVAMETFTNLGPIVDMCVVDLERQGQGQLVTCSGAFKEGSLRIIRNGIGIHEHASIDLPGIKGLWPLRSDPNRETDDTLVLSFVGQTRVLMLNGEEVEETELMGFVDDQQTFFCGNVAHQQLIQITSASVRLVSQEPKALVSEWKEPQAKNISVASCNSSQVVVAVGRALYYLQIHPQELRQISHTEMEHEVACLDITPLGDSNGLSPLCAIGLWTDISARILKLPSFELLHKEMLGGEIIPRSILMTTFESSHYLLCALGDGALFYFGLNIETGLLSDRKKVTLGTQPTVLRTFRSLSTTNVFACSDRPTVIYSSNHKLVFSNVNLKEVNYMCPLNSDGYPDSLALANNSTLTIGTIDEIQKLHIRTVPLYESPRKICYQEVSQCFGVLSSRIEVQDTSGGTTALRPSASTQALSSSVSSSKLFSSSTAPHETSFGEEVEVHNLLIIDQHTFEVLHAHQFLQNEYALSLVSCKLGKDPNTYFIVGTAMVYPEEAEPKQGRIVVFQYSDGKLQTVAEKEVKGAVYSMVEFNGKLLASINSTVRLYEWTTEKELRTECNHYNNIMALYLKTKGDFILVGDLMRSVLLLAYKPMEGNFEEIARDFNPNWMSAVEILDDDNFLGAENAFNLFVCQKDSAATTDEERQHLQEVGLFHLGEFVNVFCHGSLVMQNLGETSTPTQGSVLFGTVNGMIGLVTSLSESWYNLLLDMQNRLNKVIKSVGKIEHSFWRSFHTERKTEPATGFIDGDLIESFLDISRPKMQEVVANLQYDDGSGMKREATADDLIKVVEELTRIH
Sequence of GSPT1 (P15170 whole entry): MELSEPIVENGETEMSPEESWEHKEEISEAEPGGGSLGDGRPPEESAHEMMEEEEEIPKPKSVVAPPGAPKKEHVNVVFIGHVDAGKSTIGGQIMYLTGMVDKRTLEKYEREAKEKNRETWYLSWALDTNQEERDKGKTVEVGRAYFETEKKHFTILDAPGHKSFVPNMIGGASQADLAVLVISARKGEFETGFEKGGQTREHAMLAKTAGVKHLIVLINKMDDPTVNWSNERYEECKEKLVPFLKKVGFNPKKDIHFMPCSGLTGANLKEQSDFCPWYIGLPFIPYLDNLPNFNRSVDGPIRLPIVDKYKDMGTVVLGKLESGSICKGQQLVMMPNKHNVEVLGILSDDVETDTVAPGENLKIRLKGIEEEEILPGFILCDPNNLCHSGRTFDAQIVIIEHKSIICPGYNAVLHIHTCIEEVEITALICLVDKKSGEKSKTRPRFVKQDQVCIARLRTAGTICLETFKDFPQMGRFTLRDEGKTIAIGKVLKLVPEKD
Sequence of GSPT1 (Q96SW2 whole entry): as the sequence (Q96SW2 whole entry) above
Sequence of GSPT1 (Q16531 whole entry partner): as the sequence (Q16531 whole entry partner) above

SMILES: Cn1ncc(-c2ccc3c(c2)CN(C2CCC(=O)NC2=O)C3=O)c1C1=CCN(CC(F)(F)F)CC1 (stereo not drawn) [Example 702]
DC50 (GSPT1): ≥ 25 nM
GSPT1 Ymin (GSPT1): F (F = >75-100% remaining)
CK1α Ymin (CK1α): E (E = >25-75% remaining)
DC50 (CK1α): ≥ 25 nM

SMILES: Cn1nc(-c2ccc3c(c2)CN(C2CCC(=O)NC2=O)C3=O)nc1N1[C@@H]2CCC[C@H]1CC2 (stereo partly drawn) [Example 706, 3-(5-(5-((1R,5S)-8-azabicyclo[3.2.1]octan-8-yl)-1-methyl-1H-1,2,4-triazol-3-yl)-1-oxoisoindolin-2-yl)piperidine-2,6-dione]
DC50 (GSPT1): ≥ 25 nM
GSPT1 Ymin (GSPT1): F (F = >75-100% remaining)
CK1α Ymin (CK1α): D (D = >10- 25% remaining)
DC50 (CK1α): < 25 nM

SMILES: Cn1nc(-c2ccc3c(c2)CN(C2CCC(=O)NC2=O)C3=O)nc1N1CCC(C(F)(F)F)CC1 (stereo not drawn) [Example 707, 3-(5-(1-methyl-5-(4-(trifluoromethyl)piperidin-1-yl)-1H-1,2,4-triazol-3-yl)-1-oxoisoindolin-2-yl)piperidine-2,6-dione]
DC50 (GSPT1): ≥ 25 nM
GSPT1 Ymin (GSPT1): F (F = >75-100% remaining)
CK1α Ymin (CK1α): D (D = >10- 25% remaining)
DC50 (CK1α): < 25 nM

SMILES: C[C@H]1CCCCN1c1nc(-c2ccc3c(c2)CN(C2CCC(=O)NC2=O)C3=O)nn1C (stereo partly drawn) [Example 708, 3-(5-(1-methyl-5-((S)-2-methylpiperidin-1-yl)-1H-1,2,4-triazol-3-yl)-1-oxoisoindolin-2-yl)piperidine-2,6-dione]
DC50 (GSPT1): ≥ 25 nM
GSPT1 Ymin (GSPT1): F (F = >75-100% remaining)
CK1α Ymin (CK1α): D (D = >10- 25% remaining)
DC50 (CK1α): < 25 nM

SMILES: C[C@@H]1CCCCN1c1nc(-c2ccc3c(c2)CN(C2CCC(=O)NC2=O)C3=O)nn1C (stereo partly drawn) [Example 709, 3-(5-(1-methyl-5-((R)-2-methylpiperidin-1-yl)-1H-1,2,4-triazol-3-yl)-1-oxoisoindolin-2-yl)piperidine-2,6-dione]
DC50 (GSPT1): ≥ 25 nM
GSPT1 Ymin (GSPT1): F (F = >75-100% remaining)
CK1α Ymin (CK1α): D (D = >10- 25% remaining)
DC50 (CK1α): < 25 nM

SMILES: Cn1cc(-c2ccc3c(c2)CN(C2CCC(=O)NC2=O)C3=O)nc1C12CC3CC(CC(C3)C1)C2 (stereo not drawn) [Example 711, 3-[5-[2-(1-adamantyl)-1-methyl-imidazol-4-yl]-1-oxo-isoindolin-2-yl]piperidine-2,6-dione]
DC50 (GSPT1): ≥ 25 nM
GSPT1 Ymin (GSPT1): F (F = >75-100% remaining)
CK1α Ymin (CK1α): E (E = >25-75% remaining)
DC50 (CK1α): < 25 nM

SMILES: Cn1cc(-c2ccc3c(c2)CN(C2CCC(=O)NC2=O)C3=O)nc1[C@H]1[C@@H]2COC[C@@H]21 (stereo partly drawn) [Example 716, 3-(5-(2-((1R,5S,6s)-3-oxabicyclo[3.1.0]hexan-6-yl)-1-methyl-1H-imidazol-4-yl)-1-oxoisoindolin-2-yl)piperidine-2,6-dione]
DC50 (GSPT1): ≥ 25 nM
GSPT1 Ymin (GSPT1): F (F = >75-100% remaining)
CK1α Ymin (CK1α): E (E = >25-75% remaining)
DC50 (CK1α): < 25 nM

SMILES: Cn1cc(-c2ccc3c(c2)CN(C2CCC(=O)NC2=O)C3=O)nc1C12CCC(CC1)CC2 (stereo not drawn) [Example 718, 3-(5-(2-(bicyclo[2.2.2]octan-1-yl)-1-methyl-1H-imidazol-4-yl)-1-oxoisoindolin-2-yl)piperidine-2,6-dione]
DC50 (GSPT1): ≥ 25 nM
GSPT1 Ymin (GSPT1): F (F = >75-100% remaining)
CK1α Ymin (CK1α): E (E = >25-75% remaining)
DC50 (CK1α): < 25 nM

SMILES: Cn1cc(-c2ccc3c(c2)CN(C2CCC(=O)NC2=O)C3=O)nc1C12CCN(CC1)CC2 (stereo not drawn) [Example 719, 3-(5-(1-methyl-2-(quinuclidin-4-yl)-1H-imidazol-4-yl)-1-oxoisoindolin-2-yl)piperidine-2,6-dione]
DC50 (GSPT1): ≥ 25 nM
GSPT1 Ymin (GSPT1): F (F = >75-100% remaining)
CK1α Ymin (CK1α): E (E = >25-75% remaining)
DC50 (CK1α): ≥ 25 nM

SMILES: Cn1cc(-c2ccc3c(c2)CN(C2CCC(=O)NC2=O)C3=O)nc1-c1ccc(N2CCNCC2)cc1 (stereo not drawn) [Example 721]
DC50 (GSPT1): ≥ 25 nM
GSPT1 Ymin (GSPT1): F (F = >75-100% remaining)
CK1α Ymin (CK1α): D (D = >10- 25% remaining)
DC50 (CK1α): ≥ 25 nM

SMILES: CC(=O)Nc1ccc(-c2nc(-c3ccc4c(c3)CN(C3CCC(=O)NC3=O)C4=O)cn2C)cc1 (stereo not drawn) [Example 723]
DC50 (GSPT1): ≥ 25 nM
GSPT1 Ymin (GSPT1): F (F = >75-100% remaining)
CK1α Ymin (CK1α): C (C = 0-10% remaining)
DC50 (CK1α): < 25 nM

SMILES: Cn1cc(-c2ccc3c(c2)CN(C2CCC(=O)NC2=O)C3=O)nc1-c1cccc(F)c1F (stereo not drawn) [Example 724]
DC50 (GSPT1): ≥ 25 nM
GSPT1 Ymin (GSPT1): F (F = >75-100% remaining)
CK1α Ymin (CK1α): C (C = 0-10% remaining)
DC50 (CK1α): < 25 nM

SMILES: Cn1cc(-c2ccc3c(c2)CN(C2CCC(=O)NC2=O)C3=O)nc1-c1cc(F)ccc1Cl (stereo not drawn) [Example 725]
DC50 (GSPT1): ≥ 25 nM
GSPT1 Ymin (GSPT1): F (F = >75-100% remaining)
CK1α Ymin (CK1α): C (C = 0-10% remaining)
DC50 (CK1α): < 25 nM

SMILES: Cn1c(C2CCC2)nc(-c2ccc3c(c2)CN(C2CCC(=O)NC2=O)C3=O)c1-c1ccccc1 (stereo not drawn) [Example 727, 3-(5-(2-cyclobutyl-1-methyl-5-phenyl-1H-imidazol-4-yl)-1-oxoisoindolin-2-yl)piperidine-2,6-dione]
DC50 (GSPT1): ≥ 25 nM
GSPT1 Ymin (GSPT1): F (F = >75-100% remaining)
CK1α Ymin (CK1α): C (C = 0-10% remaining)
DC50 (CK1α): < 25 nM

SMILES: O=C1CCC(N2Cc3cc(-c4nc(C5CC5)oc4-c4ccccc4)ccc3C2=O)C(=O)N1 (stereo not drawn) [Example 734, 3-(5-(2-cyclopropyl-5-phenyloxazol-4-yl)-1-oxoisoindolin-2-yl)piperidine-2,6-dione]
DC50 (GSPT1): ≥ 25 nM
GSPT1 Ymin (GSPT1): F (F = >75-100% remaining)
CK1α Ymin (CK1α): C (C = 0-10% remaining)
DC50 (CK1α): < 25 nM

Now from value to compound:

DC50 (GSPT1): < 25 nM
GSPT1 Ymin (GSPT1): F (F = >75-100% remaining)
CK1α Ymin (CK1α): E (E = >25-75% remaining)
DC50 (CK1α): < 25 nM
SMILES: Cn1ncc(-c2ccc3c(c2)CN(C2CCC(=O)NC2=O)C3=O)c1C1=Cc2ccccc2C1 (stereo not drawn) [Example 700]

DC50 (GSPT1): ≥ 25 nM
GSPT1 Ymin (GSPT1): F (F = >75-100% remaining)
CK1α Ymin (CK1α): E (E = >25-75% remaining)
DC50 (CK1α): ≥ 25 nM
SMILES: Cn1ncc(-c2ccc3c(c2)CN(C2CCC(=O)NC2=O)C3=O)c1C1=Cc2ccccc2CC1 (stereo not drawn) [Example 701]

DC50 (GSPT1): < 25 nM
GSPT1 Ymin (GSPT1): F (F = >75-100% remaining)
CK1α Ymin (CK1α): D (D = >10- 25% remaining)
DC50 (CK1α): < 25 nM
SMILES: Cc1nc(-c2ccc3c(c2)CN(C2CCC(=O)NC2=O)C3=O)nn1-c1ccccc1 (stereo not drawn) [Example 712, 3-(5-(5-methyl-1-phenyl-1H-1,2,4-triazol-3-yl)-1-oxoisoindolin-2-yl) piperidine-2,6-dione]

DC50 (GSPT1): < 25 nM
GSPT1 Ymin (GSPT1): F (F = >75-100% remaining)
CK1α Ymin (CK1α): D (D = >10- 25% remaining)
DC50 (CK1α): < 25 nM
SMILES: Cn1nc(-c2ccc3c(c2)CN(C2CCC(=O)NC2=O)C3=O)nc1N1CCCC1 (stereo not drawn) [Example 713, 3-(5-(1-methyl-5-(pyrrolidin-1-yl)-1H-1,2,4-triazol-3-yl)-1-oxoisoindolin-2-yl)piperidine-2,6-dione]

DC50 (GSPT1): < 25 nM
GSPT1 Ymin (GSPT1): F (F = >75-100% remaining)
CK1α Ymin (CK1α): E (E = >25-75% remaining)
DC50 (CK1α): < 25 nM
SMILES: Cn1cc(-c2ccc3c(c2)CN(C2CCC(=O)NC2=O)C3=O)nc1C1(C)CCCCC1 (stereo not drawn) [Example 714, 3-(5-(1-methyl-2-(1-methylcyclohexyl)-1H-imidazol-4-yl)-1-oxoisoindolin-2-yl)piperidine-2,6-dione]

DC50 (GSPT1): < 25 nM
GSPT1 Ymin (GSPT1): E (E = >25-75% remaining)
CK1α Ymin (CK1α): D (D = >10- 25% remaining)
DC50 (CK1α): < 25 nM
SMILES: Cn1cc(-c2ccc3c(c2)CN(C2CCC(=O)NC2=O)C3=O)nc1[C@H]1CC[C@H](C)CC1 (stereo partly drawn) [Example 715, 3-(5-(1-Methyl-2-((1r,4r)-4-methylcyclohexyl)-1H-imidazol-4-yl)-1-oxoisoindolin-2-yl)piperidine-2,6-dione]

DC50 (GSPT1): < 25 nM
GSPT1 Ymin (GSPT1): E (E = >25-75% remaining)
CK1α Ymin (CK1α): C (C = 0-10% remaining)
DC50 (CK1α): < 25 nM
SMILES: CCc1nc(-c2ccc3c(c2)CN(C2CCC(=O)NC2=O)C3=O)c(-c2ccccc2)o1 (stereo not drawn) [Example 720, 3-(5-(2-ethyl-5-phenyloxazol-4-yl)-1-oxoisoindolin-2-yl) piperidine-2,6-dione]

DC50 (GSPT1): < 25 nM
GSPT1 Ymin (GSPT1): F (F = >75-100% remaining)
CK1α Ymin (CK1α): D (D = >10- 25% remaining)
DC50 (CK1α): ≥ 25 nM
SMILES: Cn1cc(-c2ccc3c(c2)CN(C2CCC(=O)NC2=O)C3=O)nc1-c1ccc2c(c1)CC(=O)N2 (stereo not drawn) [Example 722]

DC50 (GSPT1): < 25 nM
GSPT1 Ymin (GSPT1): E (E = >25-75% remaining)
CK1α Ymin (CK1α): C (C = 0-10% remaining)
DC50 (CK1α): < 25 nM
SMILES: O=C1CCC(N2Cc3cc(-c4nc(C(F)F)oc4-c4ccccc4)ccc3C2=O)C(=O)N1 (stereo not drawn) [Example 735, 3-(5-(2-(difluoromethyl)-5-phenyloxazol-4-yl)-1-oxoisoindolin-2-yl) piperidine-2,6-dione]

Reference: patent US20240158370A1, “CK1 alpha AND DUAL CK1 alpha / GSPT1 DEGRADING COMPOUNDS” (Innovo Therapeutics, Inc., priority 2022, published 2024)
